Assay results as given in patent US8846863B2, “Heat stable protein ingredients” (University of Tennessee Research Foundation, priority 2010, dated 2014).

Assay: Thymol solubility / dispersion in deionized water
Format: physicochemical
Conditions: suspended at […] in deionized water

Cc1ccc(C(C)C)c(O)c1 [thymol, 2-Isopropyl-5-methylphenol]
Appearance of suspension: showed insoluble particulates
